Test results published in PubChem BioAssay AID328 (DTP/NCI, 2004).
Where “and” joins values, the source holds several entries; their conditions need not be identical. Equal entries are not always repeated. Inconclusive results and toxic doses are left out.

System: BDF1 mice, P388 leukemia ip, median survival T/C
Assay: NCI In Vivo Anticancer Drug Screen. Data for tumor model P388 Leukemia (intraperitoneal) in B6D2F1 (BDF1) mice
Settings: endpoint: median survival time, higher = longer survival
Procedure, shortened: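 In tumour-bearing mice, survival after compound treatment is set against the vehicle group and given as a quotient.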

In the case of `COc1cc2cc3c4cc(OC)c(OC)cc4cc[n+]3c(C)c2cc1OC` (tested in a mixture with another compound), the T/C (dose: 8.0 mg/kg/injection, schedule: Q01DX008 (ip), vehicle: other) is reported as 156 % of control, the T/C (dose: 8.0 mg/kg/injection, schedule: Q01DX009 (ip), vehicle: clinical formulation) is reported as 155 % of control and the T/C (dose: 8.0 mg/kg/injection, schedule: Q03HX008 (ip), vehicle: other) is reported as 111 % of control. For the same compound, the T/C (dose: 9.3 mg/kg/injection, schedule: Q01DX009 (ip), vehicle: saline) was 150 % of control, the T/C (dose: 12.5 mg/kg/injection, schedule: Q04DX003 (ip), vehicle: other) was 121 % of control and the T/C (dose: 16.0 mg/kg/injection, schedule: Q01DX008 (ip), vehicle: other) was 154 % of control. For the same compound, the T/C (dose: 16.0 mg/kg/injection, schedule: Q01DX008 (ip), vehicle: water) was 163 % of control, the T/C (dose: 16.0 mg/kg/injection, schedule: Q01DX009 (ip), vehicle: Klucel (hydroxypropylcellulose) (HPC)) was 157 % of control and the T/C (dose: 16.0 mg/kg/injection, schedule: Q01DX009 (ip), vehicle: clinical formulation) was 161 % of control. The T/C (dose: 16.0 mg/kg/injection, schedule: Q01DX009 (oral), vehicle: other) was 94 % of control, the T/C (dose: 16.0 mg/kg/injection, schedule: Q01DX009 (sc), vehicle: other) was 101 % of control and the T/C (dose: 16.0 mg/kg/injection, schedule: Q03HX016 (ip), vehicle: other) was 153 % of control. For the same compound, the T/C (dose: 16.0 mg/kg/injection, schedule: Q03HX024 (ip), vehicle: other) was 174 % of control, the T/C (dose: 32.0 mg/kg/injection, schedule: Q01DX008 (ip), vehicle: Klucel (hydroxypropylcellulose) (HPC)) was 182 % of control and the T/C (dose: 32.0 mg/kg/injection, schedule: Q01DX008 (ip), vehicle: other) was 167 % of control. For the same compound, the T/C (dose: 32.0 mg/kg/injection, schedule: Q01DX008 (ip), vehicle: water) was 163 % of control, the T/C (dose: 32.0 mg/kg/injection, schedule: Q01DX009 (ip), vehicle: Klucel (hydroxypropylcellulose) (HPC)) was 186 % of control and the T/C (dose: 32.0 mg/kg/injection, schedule: Q01DX009 (ip), vehicle: clinical formulation) was 211 % of control. For the same compound, the T/C (dose: 32.0 mg/kg/injection, schedule: Q01DX009 (oral), vehicle: other) was 103 % of control, the T/C (dose: 32.0 mg/kg/injection, schedule: Q01DX009 (sc), vehicle: other) was 115 % of control and the T/C (dose: 32.0 mg/kg/injection, schedule: Q03HX016 (ip), vehicle: other) was 182 % of control. For the same compound, the T/C (dose: 32.0 mg/kg/injection, schedule: Q03HX024 (ip), vehicle: other) was 190 % of control, the T/C (dose: 37.5 mg/kg/injection, schedule: Q01DX009 (ip), vehicle: saline) was 175 % of control and the T/C (dose: 37.5 mg/kg/injection, schedule: Q04DX003 (ip), vehicle: saline) was 162 % of control. The T/C (dose: 46.7 mg/kg/injection, schedule: Q04DX003 (ip), vehicle: alkali diluted with saline) was 165 % of control, the T/C (dose: 50.0 mg/kg/injection, schedule: Q04DX002 (ip), vehicle: saline) was 154 % of control and the T/C (dose: 50.0 mg/kg/injection, schedule: Q04DX003 (ip), vehicle: saline) was 157 % of control. For the same compound, the T/C (dose: 50.0 mg/kg/injection, schedule: Q04DX003 (ip), vehicle: water) was 158 % of control, the T/C (dose: 64.0 mg/kg/injection, schedule: Q01DX001 (ip), vehicle: other) was 120 % of control and the T/C (dose: 64.0 mg/kg/injection, schedule: Q01DX001 (oral), vehicle: other) was 100 % of control. The T/C (dose: 64.0 mg/kg/injection, schedule: Q01DX001 (sc), vehicle: other) was 103 % of control, the T/C (dose: 64.0 mg/kg/injection, schedule: Q01DX008 (ip), vehicle: Klucel (hydroxypropylcellulose) (HPC)) was 208 % of control and the T/C (dose: 64.0 mg/kg/injection, schedule: Q01DX008 (ip), vehicle: other) was 206 % of control. For the same compound, the T/C (dose: 64.0 mg/kg/injection, schedule: Q01DX008 (ip), vehicle: water) was 185 % of control, the T/C (dose: 64.0 mg/kg/injection, schedule: Q01DX009 (ip), vehicle: Klucel (hydroxypropylcellulose) (HPC)) was 182 % of control and 203 % of control and the T/C (dose: 64.0 mg/kg/injection, schedule: Q01DX009 (ip), vehicle: clinical formulation) was 194 % of control. For the same compound, the T/C (dose: 64.0 mg/kg/injection, schedule: Q01DX009 (oral), vehicle: other) was 107 % of control, the T/C (dose: 64.0 mg/kg/injection, schedule: Q04DX003 (ip), vehicle: other) was 161 % of control and 163 % of control and the T/C (dose: 64.0 mg/kg/injection, schedule: Q04DX003 (ip), vehicle: water) was 159 % of control. For the same compound, the T/C (dose: 75.0 mg/kg/injection, schedule: Q01DX001 (ip), vehicle: saline) was 154 % of control, the T/C (dose: 75.0 mg/kg/injection, schedule: Q01DX009 (ip), vehicle: saline) was 183 % of control and the T/C (dose: 75.0 mg/kg/injection, schedule: Q04DX003 (ip), vehicle: saline) was 158 % of control. For the same compound, the T/C (dose: 77.8 mg/kg/injection, schedule: Q04DX003 (ip), vehicle: alkali diluted with saline) was 165 % of control, the T/C (dose: 86.4 mg/kg/injection, schedule: Q04DX003 (ip), vehicle: other) was 193 % of control and the T/C (dose: 100.0 mg/kg/injection, schedule: Q04DX002 (ip), vehicle: saline) was 154 % of control and 169 % of control. For the same compound, the T/C (dose: 100.0 mg/kg/injection, schedule: Q04DX003 (ip), vehicle: other) was 155 % of control, the T/C (dose: 100.0 mg/kg/injection, schedule: Q04DX003 (ip), vehicle: water) was 200 % of control and the T/C (dose: 128.0 mg/kg/injection, schedule: Q01DX001 (oral), vehicle: other) was 98 % of control. The T/C (dose: 128.0 mg/kg/injection, schedule: Q01DX001 (sc), vehicle: other) was 100 % of control, the T/C (dose: 128.0 mg/kg/injection, schedule: Q01DX008 (ip), vehicle: other) was 156 % of control and the T/C (dose: 128.0 mg/kg/injection, schedule: Q01DX009 (ip), vehicle: Klucel (hydroxypropylcellulose) (HPC)) was 186 % of control. For the same compound, the T/C (dose: 128.0 mg/kg/injection, schedule: Q01DX009 (oral), vehicle: other) was 103 % of control, the T/C (dose: 128.0 mg/kg/injection, schedule: Q01DX009 (sc), vehicle: other) was 159 % of control and the T/C (dose: 128.0 mg/kg/injection, schedule: Q04DX003 (ip), vehicle: Klucel (hydroxypropylcellulose) (HPC)) was 156 % of control. The T/C (dose: 128.0 mg/kg/injection, schedule: Q04DX003 (ip), vehicle: other) was 167 % of control and 175 % of control, the T/C (dose: 128.0 mg/kg/injection, schedule: Q08DX002 (ip), vehicle: other) was 155 % of control and the T/C (dose: 130.0 mg/kg/injection, schedule: Q04DX003 (ip), vehicle: alkali diluted with saline) was 180 % of control. For the same compound, the T/C (dose: 144.0 mg/kg/injection, schedule: Q04DX003 (ip), vehicle: other) was 207 % of control, the T/C (dose: 150.0 mg/kg/injection, schedule: Q01DX001 (ip), vehicle: saline) was 150 % of control and the T/C (dose: 150.0 mg/kg/injection, schedule: Q04DX003 (ip), vehicle: saline) was 175 % of control. For the same compound, the T/C (dose: 200.0 mg/kg/injection, schedule: Q04DX002 (ip), vehicle: saline) was 163 % of control and 176 % of control, the T/C (dose: 200.0 mg/kg/injection, schedule: Q04DX003 (ip), vehicle: other) was 189 % of control and the T/C (dose: 216.0 mg/kg/injection, schedule: Q04DX003 (ip), vehicle: alkali diluted with saline) was 205 % of control. For the same compound, the T/C (dose: 256.0 mg/kg/injection, schedule: Q01DX001 (oral), vehicle: other) was 103 % of control, the T/C (dose: 256.0 mg/kg/injection, schedule: Q01DX001 (sc), vehicle: other) was 108 % of control and the T/C (dose: 256.0 mg/kg/injection, schedule: Q01DX009 (oral), vehicle: other) was 112 % of control. For the same compound, the T/C (dose: 256.0 mg/kg/injection, schedule: Q04DX003 (ip), vehicle: Klucel (hydroxypropylcellulose) (HPC)) was 156 % of control, the T/C (dose: 256.0 mg/kg/injection, schedule: Q04DX003 (ip), vehicle: other) was 206 % of control and 208 % of control and the T/C (dose: 256.0 mg/kg/injection, schedule: Q08DX002 (ip), vehicle: other) was 174 % of control. The T/C (dose: 300.0 mg/kg/injection, schedule: Q01DX001 (ip), vehicle: saline) was 166 % of control, the T/C (dose: 300.0 mg/kg/injection, schedule: Q04DX003 (ip), vehicle: saline) was 220 % of control and the T/C (dose: 400.0 mg/kg/injection, schedule: Q04DX002 (ip), vehicle: saline) was 163 % of control. The T/C (dose: 512.0 mg/kg/injection, schedule: Q01DX001 (oral), vehicle: other) was 99 % of control, the T/C (dose: 512.0 mg/kg/injection, schedule: Q01DX001 (sc), vehicle: other) was 107 % of control and the T/C (dose: 512.0 mg/kg/injection, schedule: Q01DX009 (oral), vehicle: other) was 112 % of control.
